Measured values: patent US7666843B2, “Methods and compositions for treatment of neurological disorder” (Children's Medical Center Corporation, priority 2002, dated 2010)
“Also recorded” adds a separate entry of the source.

Key:
[1] = tested on: goldfish retinal ganglion cells; experiment: Goldfish retinal ganglion cell culture, axon outgrowth bioassay; type: cell-based; settings: goldfish RGCs; for effect on axon growth induced by inosine: 2-DG 1 mM; for axon outgrowth in response to glucose/mannose analogs: analog alone (L-enantiomers 100 μM, D-glucosamine 25 μM, 2-deoxy-D-glucose 1 mM), FIG. 8a; for effect on glucose-induced axon outgrowth: glucose 10 μM (50 μM with late fraction), dBcAMP 1 mM, 3-O-MG 100:1, 2-DG 1 mM; for effect on axon growth induced by VE<3: FIG. 2; for axon outgrowth in response to monosaccharides: sugar alone, 50 or 100 μM, D-configuration, FIG. 7a; for axon outgrowth, extracellular 6-phosphate: FIG. 8f
Description: Goldfish retinal ganglion cells are prepared as described in PCT application serial no. PCT/US98/03001, the contents of which are incorporated herein by reference, and contacted with a hexose derivative such as mannose. The ability of the hexose derivative to stimulate axonal outgrowth from the goldfish retinal ganglion cells is monitored as described in PCT application serial no. PCT/US98/03001.
Goldfish retinal ganglion cell cultures. Mammalian AF-1 was initially characterized in bioassays using dissociated goldfish retinal ganglion cells (RGCs). In brief, Comet variety goldfish (Mt. Parnell Fisheries, PA) were dark-adapted, cooled to 4° C., and killed by cervical transection. Retinas were dissected and dissociated by incubation in papain followed by a series of trituration steps that result in an RGC-enriched cell suspension (Schwartz & Agronoff,; Schwalb et al., 1995). Approximately 500 RGCs per well were plated together with the experimental samples to be tested in defined, serum-free media containing Leibovitz' L15 media (Gibco BRL) plus N1 and N2 supplements (Bottenstein, Saito), antioxidants, and bovine serum albumin as described in detail elsewhere (Schwalb et al., 1995). In each experiment, 4 wells of each sample were distributed in 24-well plates in a blinded fashion so that the person evaluating axon outgrowth was unaware of the type of sample present in each well. Experiments included a positive control (previously validated goldfish AF-1 or inosine) and a negative control (defined media alone), likewise distributed on the plate in quadruplicate in a blinded fashion. After 6 days in culture at 21° C., axon outgrowth, operationally defined as the percent of RGCs that extended an axon≧5 cell diameters in length, was evaluated in approximately 150 consecutively encountered RGCs per well. […] Data are presented as normalized means ± SEM. All experiments were repeated at least 3 times.

[2] = tested on: rat retinal ganglion cells; experiment: Rat retinal ganglion cell culture, axon outgrowth; type: cell-based; settings: rat RGCs; for axon outgrowth in the presence of forskolin: with forskolin, compared to forskolin alone, glucose up to 5 mM, mannose-6-phosphate up to 10 mM, FIG. 9a, 9c
Description: Rat retinal ganglion cell cultures. Retinal ganglion cells were identified by retrograde labeling with Fluorogold (FG: Fluorochrome, Inc.). […] After allowing 7 days for FG to be retrogradely transported up the optic nerve, rats were killed, eyes were removed, and the retinas dissected. Retinas were dissociated with papain treatment followed by trituration. Mixed cultures containing 100-150 FG-labeled RGCs per well were maintained in 24 well plates in a defined, serum-free media (Minimal Essential Media containing NaHCO3,) at 37° C. at 5% CO2 for 3 days.

[3] = forskolin 10 μM, Rp-cAMPs 100 μM, MH 10 mM
[4] = 6-TG 20 μM, NBTI 20 μM, forskolin 10 μM, Sp-cAMPs 150 μM, Rp-cAMPs 100 μM, H89 5 μM, FIG. 2, 4

## O=CC[C@@H](O)[C@H](O)[C@H](O)CO [2-deoxy-D-glucose]
[1]; 6-TG 20 μM, NBTI 20 μM, listed as 2-DG
  effect on axon growth induced by inosine: blocked the effects of both glucose and inosine; also recorded: also blocks the effect of inosine
[1]
  axon outgrowth in response to glucose/mannose analogs: ineffective; also recorded: No activity
[1]; forskolin 10 μM, Rp-cAMPs 100 μM, MH 10 mM, listed as 2-DG
  effect on glucose-induced axon outgrowth: blocked the effects of both glucose and inosine; also recorded: does block the effect of glucose

## CO[C@@H]([C@H](O)[C@H](O)CO)[C@@H](O)C=O [3-O-methyl-D-glucose]
[1]
  axon outgrowth in response to glucose/mannose analogs: ineffective; also recorded: No activity
[1]; [3]
  effect on glucose-induced axon outgrowth: fails to block the effect of glucose

## Nc1nc2nc[nH]c2c(=S)[nH]1 [6-TG, 6-thioguanine]
[1]; 6-TG 20 μM, NBTI 20 μM
  effect on axon growth induced by inosine: only partially blocked; also recorded: only partially inhibited
  effect on axon growth induced by VE<3: below baseline levels; also recorded: inhibited completely
[1]; [4]
  effect on axon growth induced by AF-1: below baseline levels
[2]; 6-TG, FIG. 3a
  effect on growth induced by VE<3 plus forskolin or Sp-cAMPs: reduced growth; also recorded: strongly inhibited

## O=C[C@H](O)[C@H](O)[C@H](O)[C@H](O)CO [D-allose]
[1]
  axon outgrowth in response to monosaccharides: failed to stimulate outgrowth

## O=C[C@@H](O)[C@H](O)[C@H](O)[C@H](O)CO [D-altrose]
[1]
  axon outgrowth in response to monosaccharides: failed to stimulate outgrowth

## O=C[C@H](O)[C@@H](O)[C@@H](O)[C@H](O)CO [D-galactose]
[1]
  axon outgrowth in response to monosaccharides: failed to stimulate outgrowth

## N[C@H]1C(O)O[C@H](CO)[C@@H](O)[C@@H]1O (stereo partly drawn) [D-glucosamine]
[1]
  axon outgrowth in response to glucose/mannose analogs: strongly active
[2]
  axon outgrowth in the presence of forskolin: did not respond

## O=C[C@H](O)[C@@H](O)[C@H](O)[C@H](O)COP(=O)(O)O [D-glucose-6-phosphate]
[1]; 100 μM
  axon outgrowth, extracellular 6-phosphate: modest amount of outgrowth
[1]; 1 mM
  axon outgrowth, extracellular 6-phosphate: appreciable growth
[1]
  axon outgrowth in response to glucose/mannose analogs: relatively modest but statistically significant amount of outgrowth
[1]; listed as D-glc-6-P
  axon outgrowth in response to glucose/mannose analogs: small but statistically significant level of outgrowth

## O=C[C@H](O)[C@H](O)[C@@H](O)[C@H](O)CO [D-gulose]
[1]
  axon outgrowth in response to monosaccharides: failed to stimulate outgrowth
[2]
  axon outgrowth in the presence of forskolin: some activity

## N[C@@H]1C(O)O[C@H](CO)[C@@H](O)[C@@H]1O (stereo partly drawn) [D-mannosamine]
[1]
  axon outgrowth in response to glucose/mannose analogs: ineffective

## O=C[C@@H](O)[C@@H](O)[C@H](O)[C@H](O)COP(=O)(O)O [D-mannose-6-phosphate]
[1]; 100 μM
  axon outgrowth, extracellular 6-phosphate: modest amount of outgrowth
[1]; 1 mM
  axon outgrowth, extracellular 6-phosphate: appreciable growth
[1]
  axon outgrowth in response to glucose/mannose analogs: relatively modest but statistically significant amount of outgrowth
[1]; listed as D-man-6-P
  axon outgrowth in response to glucose/mannose analogs: small but statistically significant level of outgrowth
[2]
  axon outgrowth in the presence of forskolin: did not respond

## O=C[C@@H](O)[C@@H](O)[C@@H](O)[C@H](O)CO [D-talose]
[1]
  axon outgrowth in response to monosaccharides: failed to stimulate outgrowth

## O=S(=O)(NCCNC/C=C/c1ccc(Br)cc1)c1cccc2cnccc12 [H89]
[1]; [4]
  effect on axon growth induced by AF-1: not diminished
[1]; 6-TG 20 μM, NBTI 20 μM, forskolin 10 μM, Sp-cAMPs 150 μM, Rp-cAMPs 100 μM, H89 5 μM, FIG. 2, 4, listed as H-89
  effect on axon growth induced by AF-1: did not reduce AF-1 induced growth
[1]; H89 20 μM, FIG. 4
  effect on axon growth induced by AF-1: diminished the effect of AF-1; also recorded: higher concentrations of H89 (20 μM) did

## CCCCCCOC(=O)[C@]1(O)C[C@@H]2O[C@@]1(C)n1c3ccccc3c3c4c(c5c6ccccc6n2c5c31)C(=O)NC4 [KT5720]
[1]; KT5720 1 μM, MH 10 mM, dBcAMP, late fraction with 50 μM mannose
  effect on mannose-induced axon outgrowth: did not diminish the effect of mannose; also recorded: little effect on mannose-induced growth
[1]; KT5720 10 μM, FIG. 7f
  effect on mannose-induced axon outgrowth: only a slight effect

## O=C[C@H](O)[C@H](O)[C@@H](O)[C@@H](O)CO [L-mannose]
[1]
  axon outgrowth in response to glucose/mannose analogs: completely inactive; also recorded: inactivity
[2]
  axon outgrowth in the presence of forskolin: inactivity

## O=[N+]([O-])c1ccc(CSc2ncnc3c2ncn3[C@@H]2O[C@H](CO)[C@@H](O)[C@H]2O)cc1 [NBTI, 4-(nitrobenzyl-6-thioinosine)]
[1]; 6-TG 20 μM, NBTI 20 μM
  effect on axon growth induced by inosine: effectively blocked; also recorded: blocked completely
  effect on axon growth induced by VE<3: very little effect; also recorded: not affected
[1]; [4]
  effect on axon growth induced by AF-1: very little effect

## Nc1ncnc2c1ncn2[C@@H]1O[C@@H]2CO[P@@](O)(=S)O[C@H]2[C@H]1O [Rp-cAMPs]
[1]; [4]
  effect on axon growth induced by AF-1: not diminished
[1]; 6-TG 20 μM, NBTI 20 μM, forskolin 10 μM, Sp-cAMPs 150 μM, Rp-cAMPs 100 μM, H89 5 μM, FIG. 2, 4, listed as Rp-cAMP-s
  effect on axon growth induced by AF-1: did not reduce AF-1 induced growth
[1]; Rp-cAMPs 1 mM
  block of glucose-induced outgrowth: 48%
[1]; [3]
  effect on glucose-induced axon outgrowth: no effect on glucose-induced outgrowth

## CC(=O)N[C@H]1C(O)O[C@H](CO)[C@@H](O)[C@@H]1O (some centres unmarked) [acetylglucosamine, N-acetyl-glucosamine]
[1]
  axon outgrowth in response to glucose/mannose analogs: ineffective
[1]; listed as N-acetyl-glucosamine
  axon outgrowth in response to glucose/mannose analogs: No activity

## O=C(CO)[C@@H](O)[C@H](O)[C@H](O)CO [fructose]
[1]
  axon outgrowth in response to monosaccharides: failed to stimulate outgrowth

## C[C@H](O)[C@@H](O)[C@@H](O)[C@H](O)C=O [fucose, L-fucose]
[1]
  axon outgrowth in response to glucose/mannose analogs: ineffective
[1]; listed as L-fucose
  axon outgrowth in response to glucose/mannose analogs: No activity

## COC(=O)C(C)=O [methyl pyruvate]
[1]; 5 mM
  effect on outgrowth of adding energy substrate to the media: had no effect

## CO[C@H]1O[C@H](CO)[C@@H](O)[C@H](O)[C@H]1O [methyl-α-D-glucopyranoside]
[1]
  axon outgrowth in response to glucose/mannose analogs: ineffective
[1]; listed as methyl-α-glucose pyranose
  axon outgrowth in response to glucose/mannose analogs: No activity

## CO[C@@H]1O[C@H](CO)[C@@H](O)[C@H](O)[C@H]1O [methyl-β-D-glucopyranoside]
[1]
  axon outgrowth in response to glucose/mannose analogs: ineffective
[1]; listed as methyl-β-glucose pyranose
  axon outgrowth in response to glucose/mannose analogs: No activity

## O[C@H]1[C@H](O)[C@@H](O)[C@H](O)[C@@H](O)[C@H]1O [myo-inositol]
[1]
  axon outgrowth in response to monosaccharides: failed to stimulate outgrowth

## O=C(CO)[C@H](O)[C@@H](O)[C@H](O)CO [sorbose]
[1]
  axon outgrowth in response to monosaccharides: failed to stimulate outgrowth
